Consider 17 compounds from patent publication US20030044399A1, “Method of treatment” (SmithKline Beecham Corporation, priority 1998, published 2003).

Structures are written as SMILES.

As usually defined, the Ki is the equilibrium dissociation constant of an inhibitor or competing ligand from its target.

The target of test [1] is Cruzain (Trypanosoma cruzi, UniProt P25779). In words: Cysteine protease inhibition, progress curve method, cruzain. To be noted: 4 uM Ac-Lys-Glu-Lys-Leu-Arg-AMC, 100 mM Na acetate pH 5.5, 5 mM cysteine; read-out: Cruzain Ki. It is filed as biochemical. The gist of the method:
(§1)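 Buffer was 100 mM sodium acetate pH 5.5 with 5 mM cysteine and 2% DMSO, at ambient temperature; reactions started with enzyme, and AMC formation was followed for 20–30 min. Substrates: Leishmania and Schistosoma, 10 uM Cbz-Phe-Arg-AMC; falcipain, 10 uM Cbz-Leu-Arg-AMC; cruzain, 4 uM Ac-Lys-Glu-Lys-Leu-Arg-AMC. Linear curves gave Ki,app; curved ones gave kobs/[I].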

Test [2] deals with Schisto B 2 (Schistosoma mansoni, UniProt Q95PM1). In words: Cysteine protease inhibition, progress curve method, schistosoma B 2. In kind it is biochemical. To be noted: 10 uM Cbz-Phe-Arg-AMC, 100 mM Na acetate pH 5.5, 5 mM cysteine. How it is done:
(§2) Standard assay conditions for the determination of kinetic constants used 10 uM fluorogenic peptide substrate, Cbz-Phe-Arg-AMC for the cysteine proteases from Leishmania spp and Schistosoma Mansoni, Cbz-Leu-Arg-AMC for the cysteine proteases from Plasmodium falciparum and Trypanosoma brucei rhodesiensi, and Ac-Lys-Glu-Lys-Leu-Arg-AMC (4 uM final substrate concentration) for the cysteine protease from Trypoanosoma cruzi, and were determined in 100 mM Na acetate at pH 5.5 containing 5 mM cysteine. Stock substrate solutions were prepared at concentrations of […] in DMSO with 10 uM (4 uM for Ac-Lys-Glu-Lys-Leu-Arg-AMC) final substrate concentration in the assays. The final DMSO concentration was 2% and the final volume was 100 uL. All assays were conducted at ambient temperature. Product progress curves were generated over 20 to 30 minutes following formation of AMC product.
(§3) Potential inhibitors were evaluated using the progress curve method. Assays were carried out in the presence of variable concentrations of test compound. Reactions were initiated by addition of enzyme to buffered solutions of inhibitor and substrate. Data analysis was conducted according to one of two procedures depending on the appearance of the progress curves in the presence of inhibitors. For those compounds whose progress curves were linear, apparent inhibition constants (Ki,app) were calculated according to equation 1 (Brandt et al., Biochemitsry, 1989, 28, 140):
(§4) v=VmA/[Ka(1+I/Ki,app)+A] (1)
(§5) Where v is the velocity of the reaction with maximal velocity Vm, A is the concentration of substrate with Michaelis constant of Ka, and I is the concentration of inhibitor.
(§6) [AMC]=vsst+(v0−vss)[1−exp (−kobst)]/kobs (2)
(§7) Where [AMC] is the concentration of product formed over time t, v0 is the initial reaction velocity and vss is the final steady state rate. Values for kobs were then analyzed as a linear function of inhibitor concentration to generate an apparent second order rate constant (kobs/inhibitor concentration or kobs/[I]) describing the time-dependent inhibition. A complete discussion of this kinetic treatment has been fully described (Morrison et al., Adv. Enzymol. Relat. Areas Mol. Biol., 1988, 61, 201).
(§8) Exemplary inhibition data for the compounds used in the present method collected in accordance with the above-described procedure are listed in Table I.

Test [3] concerns the target Schisto B 1 (Schistosoma mansoni, UniProt P25792). In words: Cysteine protease inhibition, progress curve method, schistosoma B 1. To be noted: 10 uM Cbz-Phe-Arg-AMC, 100 mM Na acetate pH 5.5, 5 mM cysteine; read-out: Schisto B 1 Ki. In kind it is biochemical. How it is done: as §2, §3, §4, §5, §6, §7, §8
The target of test [4] is Falcipain 2 (Plasmodium falciparum, UniProt Q8I6U4). Description: Cysteine protease inhibition, progress curve method, falcipain. In kind it is biochemical. As to conditions: 10 uM Cbz-Leu-Arg-AMC, 100 mM Na acetate pH 5.5, 5 mM cysteine. The gist of the method: as §1
Falcipain 2, sequence (Q8I6U4 244-484): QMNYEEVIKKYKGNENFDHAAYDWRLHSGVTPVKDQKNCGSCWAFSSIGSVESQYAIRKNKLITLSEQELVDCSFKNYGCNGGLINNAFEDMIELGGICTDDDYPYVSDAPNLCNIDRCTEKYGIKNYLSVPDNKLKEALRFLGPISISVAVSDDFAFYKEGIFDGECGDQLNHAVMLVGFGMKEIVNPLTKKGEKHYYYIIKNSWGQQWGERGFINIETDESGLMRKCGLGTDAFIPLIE
The target of test [5] is Rhodazain (Trypanosoma brucei rhodesiense, UniProt Q95PM0). In words: Cysteine protease inhibition, progress curve method, rhodazain. In kind it is biochemical, Trypanosoma brucei rhodesiensi. As to conditions: Rhodazain Ki (nM), 10 uM Cbz-Leu-Arg-AMC, 100 mM Na acetate pH 5.5, 5 mM cysteine.
Rhodazain, sequence (Q95PM0 entry or part of it): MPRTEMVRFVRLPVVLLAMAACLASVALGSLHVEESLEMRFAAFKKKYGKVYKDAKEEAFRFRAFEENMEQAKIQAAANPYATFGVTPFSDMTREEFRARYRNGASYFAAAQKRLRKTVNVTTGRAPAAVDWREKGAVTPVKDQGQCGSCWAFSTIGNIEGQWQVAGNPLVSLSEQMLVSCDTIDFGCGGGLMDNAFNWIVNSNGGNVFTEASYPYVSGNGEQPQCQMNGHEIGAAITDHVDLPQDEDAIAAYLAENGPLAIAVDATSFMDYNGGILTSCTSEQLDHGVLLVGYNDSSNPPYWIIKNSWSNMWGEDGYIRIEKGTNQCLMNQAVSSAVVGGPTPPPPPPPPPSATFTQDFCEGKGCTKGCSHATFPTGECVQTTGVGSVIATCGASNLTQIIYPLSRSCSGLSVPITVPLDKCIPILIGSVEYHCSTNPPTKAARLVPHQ
The target in test [6] is T1, Leishmania B (UniProt P90627).
T1 sequence (P90627 1-340): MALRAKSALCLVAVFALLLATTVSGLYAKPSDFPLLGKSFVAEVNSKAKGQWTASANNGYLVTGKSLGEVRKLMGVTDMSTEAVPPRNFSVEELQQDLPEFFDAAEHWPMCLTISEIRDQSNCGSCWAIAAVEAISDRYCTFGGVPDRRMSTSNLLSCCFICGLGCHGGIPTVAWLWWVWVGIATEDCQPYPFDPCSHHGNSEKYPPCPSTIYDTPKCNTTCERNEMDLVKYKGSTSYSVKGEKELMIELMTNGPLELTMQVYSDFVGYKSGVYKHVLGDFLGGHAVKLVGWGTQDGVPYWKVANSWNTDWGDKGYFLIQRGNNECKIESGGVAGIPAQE
Description: Cysteine protease inhibition, progress curve method, leishmania B. In kind it is biochemical, Leishmania spp. To be noted: read-out: Leishmania B Ki nM; 10 uM Cbz-Phe-Arg-AMC, 100 mM Na acetate pH 5.5, 5 mM cysteine. How it is done: as §2, §3, §4, §5, §6, §7, §8

Cruzain, sequence (P25779 123-337): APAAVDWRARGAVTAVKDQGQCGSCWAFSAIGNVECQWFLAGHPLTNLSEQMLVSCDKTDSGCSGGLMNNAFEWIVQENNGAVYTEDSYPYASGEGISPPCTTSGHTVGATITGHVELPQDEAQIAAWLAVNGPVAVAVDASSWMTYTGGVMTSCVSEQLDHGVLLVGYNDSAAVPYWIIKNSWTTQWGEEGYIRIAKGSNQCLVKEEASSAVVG
Schisto B 1, sequence (P25792 89-340): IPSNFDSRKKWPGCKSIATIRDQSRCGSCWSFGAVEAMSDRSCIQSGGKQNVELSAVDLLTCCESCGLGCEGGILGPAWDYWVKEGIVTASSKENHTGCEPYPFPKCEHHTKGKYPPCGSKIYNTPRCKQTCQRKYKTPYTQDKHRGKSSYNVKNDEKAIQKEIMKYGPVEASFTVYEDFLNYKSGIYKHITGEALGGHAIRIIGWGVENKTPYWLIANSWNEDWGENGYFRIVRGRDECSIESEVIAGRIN
Schisto B 2, sequence (Q95PM1 entry or part of it): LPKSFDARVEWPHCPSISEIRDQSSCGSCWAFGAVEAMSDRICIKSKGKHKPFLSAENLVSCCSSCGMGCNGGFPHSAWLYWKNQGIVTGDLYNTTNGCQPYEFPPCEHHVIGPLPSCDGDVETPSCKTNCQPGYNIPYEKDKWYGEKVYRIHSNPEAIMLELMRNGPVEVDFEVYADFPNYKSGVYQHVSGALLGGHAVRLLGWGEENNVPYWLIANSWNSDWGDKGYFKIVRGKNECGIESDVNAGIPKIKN

As to `CC(C)C[C@H](NC(=O)c1cnc2ccccc2n1)C(=O)N[C@H]1CCCN(S(=O)(=O)c2ccc(F)cc2)CC1=O` [Example 86], the inhibitory constant (Ki) in test [1] amounted to 23 nM; in test [2] it was 260 nM; in test [3] it was 44 nM.
For `CC(C)CC(NC(=O)c1cc2ccccc2s1)C(=O)NC1CCCN(S(=O)(=O)c2ccccn2)CC1=O` (stereo in doubt) [Example 87, Benzo[b]thiophene-2-carboxylic acid {(S)-3-methyl-1-[3-oxo-1-(pyridine-2-sulfonyl)-azepan-4-ylcarbamoyl]-butyl}amide], the inhibitory constant (Ki) is 3 nM in test [1]; 260 nM in test [2]; 42 nM in test [4]; 44 nM in test [3]; 1.9 nM in test [5].
As for `CC(C)C[C@H](NC(=O)c1cc2ccccc2o1)C(=O)NC1CCCN(Cc2ccc3ccccc3n2)CC1=O` (stereo partly drawn) [Example 212, Benzofuran-2-carboxylic acid [(S)-3-methyl-1-[3-oxo-1-quinolin-2-ylmethyl-azepan-4-ylcarbamoyl]-butyl}-amide], the Ki in test [6] came to 1.7 nM; in test [1], 7.7 nM.
Turning to `O=C(N[C@@H](Cc1ccccc1)C(=O)NC1CCCN(S(=O)(=O)c2ccccn2)CC1=O)c1cc2ccccc2o1` (stereo partly drawn) [Example 104, Benzofuran-2-carboxylic acid {(S)-1-[3-oxo-1-(pyridine-2-sulfonyl)-azepan-4-ylcarbamoyl]-2-phenyl-ethyl}-amide], the inhibitory constant (Ki) in test [1] turned out to be 13 nM; in test [2], 270 nM; in test [3] it was 76 nM; in test [5] it was 3.2 nM.
In the same order, the values of `COc1ccc2oc(C(=O)N[C@@H](CC(C)C)C(=O)N[C@H]3CCCN(S(=O)(=O)c4cccs4)CC3=O)cc2c1` [Example 143, 5-Methoxy-benzofuran-2-carboxylic acid-{(S)-3-methyl-1-[3-oxo-1-(thiophene-2-sulfonyl)-azepan-4-ylcarbamoyl]-butyl}-amide] are 5.7 nM, 110 nM, 55 nM and 6.5 nM.
With `COc1cc2cc(C(=O)N[C@H](CC3CCCCC3)C(=O)NC3CCCN(S(=O)(=O)c4cccc[n+]4[O-])CC3=O)oc2cc1OC` (stereo partly drawn) [Example 170, 5,6-Dimethoxy-benzofuran-2-carboxylic acid {(S)-2-cyclohexyl-1-[3-oxo-1-(1-oxy-pyridine-2-sulfonyl)-azepan-4-ylcarbamoyl]-ethyl}-amide], the Ki in test [2] is 82 nM; in test [3], 49 nM; in test [5], 4.7 nM.
In the case of `CC(C)C[C@@H](NC(=O)c1ccc2c(c1)OCO2)C(=O)N[C@@H]1CCCN(S(=O)(=O)c2ccc(F)cc2)CC1=O` (stereo in doubt) [Example 67, Benzo[1,3]dioxole-5-carboxylic acid {(S)-1-[1-(4-fluoro-benzenesulfonyl)-3-oxo-azepan-4-ylcarbamoyl]-3methyl-butyl}-amide], the figures for the inhibitory constant (Ki) in test [1], in test [2] and in test [3] were 11 nM, 330 nM and 45 nM, respectively.
Regarding `O=C(NC(Cc1ccccc1)C(=O)N[C@@H]1CCCN(S(=O)(=O)c2ccccn2)CC1=O)c1cccc2ccccc12` (single isomer, unassigned) [Example 190], the inhibition constant Ki in test [1] is 8.4 nM; in test [2] it was 68 nM; in test [3] it was 38 nM; in test [5], 2.5 nM.
`CC(C)C[C@H](NC(=O)c1cc2ccccc2s1)C(=O)NC1CCCN(Cc2ccc3ccccc3n2)CC1=O` (stereo partly drawn) [Example 214, Benzo[b]thiophene-2-carboxylic acid {(S)-3-methyl-1-[3-oxo-1-quinolin-2-ylmethyl-azepan-4-ylcarbamoyl]-butyl}-amide]: the Ki is 1 nM in test [6] and 7.4 nM in test [1].
`COc1ccc(C(=O)N[C@@H](CC(C)C)C(=O)N[C@@H]2CCCN(S(=O)(=O)c3ccc(F)cc3)CC2=O)cc1OC` [Example 110, N—{(S)-1-[1-(4-Fluoro-benzenesulfonyl)-3-oxo-azepan-4-ylcarbamoyl}-3-methyl-butyl}-3,4-dimethoxy-benzamide]: the inhibition constant (Ki) is 7.4 nM in test [1], 280 nM in test [2], 96 nM in test [4] and 38 nM in test [3].
Regarding `O=C(N[C@@H](Cc1ccccc1)C(=O)NC1CCCN(S(=O)(=O)c2ccccn2)CC1=O)c1cccc2cccnc12` (single isomer, unassigned) [Example 189], the Ki in test [6] stood at 3.9 nM; in test [5], 3.1 nM.
As for `Cc1c(C(=O)N[C@@H](CC(C)C)C(=O)NC2CCCN(Cc3ccc4ccccc4n3)CC2=O)oc2ccccc12` (stereo partly drawn) [Example 213, 3-Methyl-benzofuran-2-carboxylic acid [(S)-3-methyl-1-[3-oxo-1-quinolin-2-ylmethyl-azepan-4-ylcarbamoyl]-butyl}-amide], the inhibitory constant (Ki) is 0.77 nM in test [6] and 7.1 nM in test [1].
Regarding `COc1cccc(S(=O)(=O)N2CCC[C@H](NC(=O)[C@H](CC(C)C)NC(=O)c3cc4ccccc4o3)C(=O)C2)c1` [Example 136, Benzofuran-2-carboxylic acid-{(S)-1-[1-(3-methoxy-benzenesulfonyl)-3-oxo-azepan-4-ylcarbamoyl]-3-methyl-butyl}-amide], the Ki in test [1] came out at 12 nM; in test [2], 170 nM; in test [3], 41 nM.
In the same order, the values of `COc1cccc(S(=O)(=O)N2CCC[C@H](NC(=O)[C@H](CC(C)C)NC(=O)c3cc4cc(OC)ccc4o3)C(=O)C2)c1` [Example 137, 5-Methoxy-benzofuran-2-carboxylic acid-{(S)-1-[1-(3-methoxy-benzenesulfonyl)-3-oxo-azepan-4-ylcarbamoyl]-3-methyl-butyl}-amide] are 19 nM, 380 nM and 67 nM.
Take `COc1cccc(S(=O)(=O)N2CCC[C@H](NC(=O)[C@H](CC(C)C)NC(=O)c3oc4ccccc4c3C)C(=O)C2)c1` [Example 139, 3-Methyl-benzofuran-2-carboxylic acid-{(S)-1-[1-(3-methoxy-benzenesulfonyl)-3-oxo-azepan-4-ylcarbamoyl]-3-methyl-butyl}-amide]: the values for the Ki in test [2] and in test [3] were 230 nM and 64 nM, respectively.
In the case of `Cc1occc1S(=O)(=O)N1CCC[C@H](NC(=O)[C@H](CC(C)C)NC(=O)c2cc3ccccc3o2)C(=O)C1` [Example 179], the inhibition constant Ki is 2.2 nM in test [1], 110 nM in test [2], 11 nM in test [3] and 5.1 nM in test [5].
In the case of `Cc1c(C(=O)N[C@@H](CC(C)C)C(=O)N[C@H]2CCCN(S(=O)(=O)c3ccc(Cl)cc3)CC2=O)oc2ccccc12` [Example 134, 3-Methyl-benzofuran-2-carboxylic acid-{(S)-1-[1-(4-chloro-benzenesulfonyl)-3-oxo-azepan-4-ylcarbamoyl]-3-methyl-butyl}-amide], the inhibition constant Ki in test [2] came to 360 nM; in test [3] it was 78 nM.
